Data on six compounds can be found in ChEMBL document CHEMBL2073757, “Effect of flavonoids on MRP1-mediated transport in Panc-1 cells” (J Pharm Sci, 2003).

Holding throughout (assay type): functional, cell-based
For data set [1], the target named is T1, Multidrug resistance-associated protein 1 (Homo sapiens, UniProt P33527). The data set is described as follows: TP_TRANSPORTER: increase in Vinblastine intracellular accumulation (Vinblastine: 0.05 uM, BiochaninA: 101 uM) in Panc-1 cells. To be noted: panc-1, 101 µM.
T1 sequence (P33527 whole entry): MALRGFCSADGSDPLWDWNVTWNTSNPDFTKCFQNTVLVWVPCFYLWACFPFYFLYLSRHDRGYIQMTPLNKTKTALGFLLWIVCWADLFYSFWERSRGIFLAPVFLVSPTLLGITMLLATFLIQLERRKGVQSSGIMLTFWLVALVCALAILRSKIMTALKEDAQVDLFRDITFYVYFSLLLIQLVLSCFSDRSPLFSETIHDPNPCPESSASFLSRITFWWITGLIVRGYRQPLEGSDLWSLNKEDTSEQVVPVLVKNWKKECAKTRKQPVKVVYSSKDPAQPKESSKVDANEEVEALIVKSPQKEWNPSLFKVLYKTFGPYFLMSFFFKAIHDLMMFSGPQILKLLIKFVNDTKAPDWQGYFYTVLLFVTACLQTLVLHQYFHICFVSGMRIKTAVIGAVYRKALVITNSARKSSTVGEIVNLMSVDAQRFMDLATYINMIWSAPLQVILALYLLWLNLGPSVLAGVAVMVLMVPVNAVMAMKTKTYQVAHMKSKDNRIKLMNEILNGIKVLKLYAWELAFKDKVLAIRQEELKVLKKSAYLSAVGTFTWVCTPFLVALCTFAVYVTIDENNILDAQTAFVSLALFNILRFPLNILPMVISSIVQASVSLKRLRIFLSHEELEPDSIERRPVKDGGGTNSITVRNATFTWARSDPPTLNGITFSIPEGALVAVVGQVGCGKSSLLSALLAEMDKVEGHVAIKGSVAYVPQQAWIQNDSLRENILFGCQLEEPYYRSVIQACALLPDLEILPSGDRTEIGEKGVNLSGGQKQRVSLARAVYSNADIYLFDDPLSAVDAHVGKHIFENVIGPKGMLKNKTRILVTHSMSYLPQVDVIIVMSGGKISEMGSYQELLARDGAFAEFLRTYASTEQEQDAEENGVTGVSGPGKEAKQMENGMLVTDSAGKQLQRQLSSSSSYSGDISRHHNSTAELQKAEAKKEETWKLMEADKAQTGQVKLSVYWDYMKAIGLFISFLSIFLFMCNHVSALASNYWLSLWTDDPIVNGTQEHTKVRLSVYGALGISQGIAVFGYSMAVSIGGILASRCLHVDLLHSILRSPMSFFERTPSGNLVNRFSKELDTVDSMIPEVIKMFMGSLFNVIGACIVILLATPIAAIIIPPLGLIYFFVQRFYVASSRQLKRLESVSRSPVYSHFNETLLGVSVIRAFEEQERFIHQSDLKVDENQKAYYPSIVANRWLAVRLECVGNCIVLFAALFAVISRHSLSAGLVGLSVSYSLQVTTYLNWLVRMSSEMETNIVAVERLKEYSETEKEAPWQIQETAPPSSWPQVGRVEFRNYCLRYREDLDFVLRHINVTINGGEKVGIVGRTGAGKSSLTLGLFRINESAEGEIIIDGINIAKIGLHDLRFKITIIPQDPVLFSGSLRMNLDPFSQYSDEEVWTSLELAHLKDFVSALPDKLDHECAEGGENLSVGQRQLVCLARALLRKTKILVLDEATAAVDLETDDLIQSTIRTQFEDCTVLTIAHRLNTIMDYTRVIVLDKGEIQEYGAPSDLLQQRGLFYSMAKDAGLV
Data set [2] deals with T1, Multidrug resistance-associated protein 1. The data set is described as follows: TP_TRANSPORTER: increase in Daunomycin intracellular accumulation (Daunomycin: 0.05 uM, BiochaninA: 100 uM) in Panc-1 cells. Conditions: panc-1, 100 µM.
For data set [3] the target is unchanged. The data set is described as follows: TP_TRANSPORTER: increase in Vinblastine intracellular accumulation (Vinblastine: 0.05 uM, Chrysin: 100 uM) in Panc-1 cells. To be noted: panc-1, 100 µM.
The target is the same in data set [4]. The data set is described as follows: TP_TRANSPORTER: increase in Daunomycin intracellular accumulation (Daunomycin: 0.05 uM, Chrysin: 100 uM) in Panc-1 cells. To be noted: panc-1, 100 µM.
For data set [5] the target is unchanged. Nature of the data set: TP_TRANSPORTER: increase in Vinblastine intracellular accumulation (Vinblastine: 0.05 uM, Genistein: 100 uM) in Panc-1 cells. Conditions: panc-1, 100 µM.
Data set [6] has the same target. The data set is described as follows: TP_TRANSPORTER: increase in Daunomycin intracellular accumulation (Daunomycin: 0.05 uM, Genistein: 100 uM) in Panc-1 cells. Conditions: panc-1, 100 µM.
For data set [7] the target is unchanged. Nature of the data set: TP_TRANSPORTER: increase in Vinblastine intracellular accumulation (Vinblastine: 0.05 uM, Morin: 100 uM) in Panc-1 cells. To be noted: panc-1, 100 µM.
Data set [8] has the same target. Nature of the data set: TP_TRANSPORTER: increase in Daunomycin intracellular accumulation (Daunomycin: 0.05 uM, Morin: 100 uM) in Panc-1 cells. To be noted: panc-1, 100 µM.
The target is the same in data set [9]. The data set is described as follows: TP_TRANSPORTER: increase in Vinblastine intracellular accumulation (Vinblastine: 0.05 uM, Phloretin: 100 uM) in PANC-1 cells. Conditions: panc-1, 100 µM.
The target is the same in data set [10]. Nature of the data set: TP_TRANSPORTER: increase in Daunomycin intracellular accumulation (Daunomycin: 0.05 uM, Phloretin: 100 uM) in PANC-1 cells. Conditions: panc-1, 100 µM.
The target is the same in data set [11]. Nature of the data set: TP_TRANSPORTER: increase in Vinblastine intracellular accumulation (Vinblastine: 0.05 uM, Silymarin: 100 uM) in Panc-1 cells. Conditions: panc-1, 100 µM.
Data set [12] has the same target. Nature of the data set: TP_TRANSPORTER: increase in Daunomycin intracellular accumulation (Daunomycin: 0.05 uM, Silymarin: 100 uM) in Panc-1 cells. To be noted: panc-1, 100 µM.

On to `COc1ccc(-c2coc3cc(O)cc(O)c3c2=O)cc1` [BIOCHANIN], for which the Activity in data set [1] is 330%; in data set [2] it was 178%.
Take `O=c1cc(-c2ccccc2)oc2cc(O)cc(O)c12` [CHRYSIN]: the results for the Activity in data set [3] and in [4] were 180% and 198%, respectively.
On to `O=c1c(-c2ccc(O)cc2)coc2cc(O)cc(O)c12` [GENISTEIN], for which the Activity in data set [5] was determined as 191%; in data set [6], 156%.
With `O=c1c(O)c(-c2ccc(O)cc2O)oc2cc(O)cc(O)c12` [MORIN], the figures for the Activity in [7] and in data set [8] were 553% and 546%, respectively.
`O=C(CCc1ccc(O)cc1)c1c(O)cc(O)cc1O` [PHLORETIN]: the results for the Activity in [9] and in [10] were 251% and 295%, respectively.
As to SILYMARIN, the Activity was determined as 329% in [11] and 305% in data set [12].
